Experimental data from patent publication US20170056351A1, “COMPOSITION FOR INDUCING TUMOR IMMUNITY” (UNIVERSITY OF OCCUPATIONAL AND ENVIRONMENTAL HEALTH, JAPAN, priority 2014, published 2017).

Key:
[1] = system: 9L gliosarcoma cells; assay: Accumulation of ALA-induced PpIX in rat subcutaneous tumor model (HPLC analysis and fluorescence observation); assay type: in vivo
Experimental: As experimental animals, inbred male Fischer 344 rats (8 week old) (SLC, Inc. (Hamamatsu, Japan)) were used and were inoculated with 9L gliosarcoma cells. […] In short, 9L gliosarcoma cells (1×10^6 cells) were transplanted into the skin on the dorsal side of each Fischer 344 rat, so as to produce a rat subcutaneous tumor model.
Specifically, after the transplanted tumor had grown to a size of 1 cm in diameter, 100 mg/kg body weight of ALA was injected into the caudal vein of each rat (i.v.). Three hours later, the rat was anesthetized, and a tumor portion, excluding a portion covering the dorsal skin, was excised from the rat. The tumor portion was immediately subjected to a freezing treatment using dry ice, and the resultant was then preserved at −80° C. in a dark place.
Specifically, a tumor sample (approximately 1 mm in diameter) was treated with 200 μl of 0.1 M NaOH, and it was then homogenized on ice, using Powermasher II (Assist, Tokyo, Japan). […]
For the elution, Solvent A was used for 5 minutes, then, linear gradient Solvent B (0% to 100%) was used for 25 minutes, and thereafter, Solvent B was used for 10 minutes. The flow rate for elution was maintained at constant, using a fluorospectro-photometer (excited at 404 nm, and detected at 624 nm). […]

[2] = system: 9L gliosarcoma cells; assay: In vivo radiosensitizing effect of ALA with multiple doses of ionizing radiation, tumor growth in rat subcutaneous tumor model
Experimental: As experimental animals, inbred male Fischer 344 rats (8 week old) (SLC, Inc. (Hamamatsu, Japan)) were used and were inoculated with 9L gliosarcoma cells. The inoculation was carried out in accordance with the procedures described in the following publications: Yamamoto J, Hirano T, Li S, Koide M, Kohno E, Inenaga C, et al.: Selective accumulation and strong photodynamic effects of a new photosensitizer, ATX-S10.Na (II), in experimental malignant glioma. Int J Oncol 27: 1207-13, 2005; Yamamoto J, Yamamoto S, Hirano T, Li S, Koide M, Kohno E, et al.: Monitoring of singlet oxygen is useful for predicting the photodynamic effects in the treatment for experimental glioma. Clin Cancer Res 12: 7132-9, 2006. In short, 9L gliosarcoma cells (1×10^6 cells) were transplanted into the skin on the dorsal side of each Fischer 344 rat, so as to produce a rat subcutaneous tumor model.
As described above, 9L gliosarcoma cells were inoculated into inbred Fischer 344 rats. […] Moreover, according to other previous studies, it had been reported that the dose of ALA by a single intravenous injection is 100 to 500 mg/kg body weight in the photodynamic therapy (PDT) using rodents (Yamamoto J, Yamamoto S, Hirano T, Li S, Koide M, Kohno E, et al.: Monitoring of singlet oxygen is useful for predicting the photodynamic effects in the treatment for experimental glioma. Clin Cancer Res 12:7132-9, 2006; Abels C, Heil P, Dellian M, Kuhnle G E, Baumgartner R, Goetz A E: In vivo kinetics and spectra of 5-aminolaevulinic acid-induced fluorescence in an amelanotic melanoma of the hamster. Br J Cancer 70: 826-33, 1994; Abels C, Fritsch C, Bolsen K, Szeimies R M, Ruzicka T, Goerz G, et al.: Photodynamic therapy with 5-aminolaevulinic acid-induced porphyrins of an amelanotic melanoma in vivo. J Photochem Photobiol B 40: 76-83, 1997; Bozzini G, Colin P, Betrouni N, Maurage C A, Leroy X, Simonin S, et al.: Efficiency of 5-ALA mediated photodynamic therapy on hypoxic prostate cancer: a preclinical study on the Dunning R3327-AT2 rat tumor model. Photodiagnosis Photodyn Ther 10: 296-303, 2013.). Accordingly, in the present study, the present inventors have determined the maximum dose of ionizing radiation to be 10 Gy, and the maximum dose of ALA to be 500 mg/kg body weight. […] Multiple intravenous injections into the caudal vein of rats had been technically difficult, but according to the experience of the present inventors, at maximum 5 times of injections had been possible. Accordingly, the present inventors have determined an optimal ionizing irradiation schedule, in which ionizing irradiation at a dose of 2 Gy/day and ALA multiple-dose administration at a dose of 100 mg/kg body weight/day were carried out for 5 consecutive days. After the subcutaneous tumor had grown to a size of 6 to 8 mm in diameter, the rats were randomly divided into four groups, and were then treated as follows:
control group (without treatments) (n=5); ALA multiple-dose administration group (n=5); ionizing radiation multiple-dose application group (RT) (n=7); and ALA multiple-dose administration+ionizing radiation multiple-dose application group. (5-ALA+RT) (n=7).
In a group to which only ALA was administered, only ALA (100 mg/kg) was administered to rats via caudal vein for 5 consecutive days. In a multiple-dose application group involving only ionizing radiation, rats were anesthetized and were then irradiated with an ionizing radiation of 2 Gy/day for 5 consecutive days (a total of 10 Gy). In an ALA multiple-dose administration+ionizing radiation multiple-dose application group, for 5 consecutive days, rats were intravenously administered with ALA (100 mg/kg), then 3 hours later, the rats were anesthetized, and an ionizing radiation of 2 Gy/day was applied to the subcutaneous tumor thereof in a dark place (a total of 10 Gy). Ionizing radiation was applied at a rate of 0.65 Gy/min, using an X-ray irradiation apparatus (MBR-1520R; HITACHI Engineering & Service Co., Ltd., Japan). […]

[3] = system: U251 cells; assay: Intracellular localization of ROS 12 hours after ionizing radiation (DCFD, confocal laser scanning microscope), U251; assay type: cell-based, human; settings: pre-treatment with 1 mM 5-ALA 4 hours before 10 Gy, 12 hours after irradiation, vs no 5-ALA
Experimental: Intracellular ROS production was detected by our method using DCFD and a confocal laser scanning microscope (LMS5 Pascal; Carl Zeiss, Jena, Germany) (Yamamoto J, Ogura S, Tanaka T, et al: Radiosensitizing effect of 5-aminolevulinic acid-induced protoporphyrin IX in glioma cells in vitro. Oncol Rep 27: 1748-1752, 2012.). Briefly, the cells were seeded in a fresh medium containing 1 mM 5-ALA in a 35-mm glass-bottom culture dish (Asahi Techno Glass, Tokyo, Japan), and were then incubated at 37° C. for 4 hours in a dark room. Thereafter, the cells were washed with PBS, and were then exposed to an ionizing radiation of 10 Gy. Twelve hours after the ionizing irradiation, the cells were washed with PBS twice, and were then incubated together with 10 μM DCFD for 15 minutes. Thereafter, the cells were washed with PBS twice, and immediately after the washing, the resulting cells were observed. DCFD fluorescence (excitation: 488 nm; radiation: 505-530 nm band-pass filter) was imaged on a confocal laser scanning microscope. All procedures were carried out in a dark room.

**Q.** Which “amount of PpIX in tumor induced by ALA (HPLC)” value ([1]; 3 hours after intravenous administration of ALA 100 mg/kg body weight, mean±SE) does the source give for `NCC(=O)CCC(=O)O` [ALA, 5-aminolevulinic acid] here?
**A.** 3.66±0.91 pmol/mg protein

**Q.** And the “fluorescence of subcutaneous tumor under 410 nm light” value ([1]; 3 hours after intravenous administration of ALA, compared with control tumor without ALA)?
**A.** strong fluorescence

**Q.** What about the “mean tumor growth inhibitory rate” value ([2]; 16th day after treatment, ALA multiple-dose + ionizing radiation multiple-dose group compared with ionizing radiation multiple-dose group) of the same molecule?
**A.** 42.5%

**Q.** What about the “mean tumor volume, Day 0” value ([2]; ALA alone 100 mg/kg i.v. for 5 consecutive days, Day 0, mean ± SE, n = 5) of the same molecule?
**A.** 143.9 ± 17.4 mm^3

**Q.** What about the “mean tumor volume, Day 8” value ([2]; ALA alone 100 mg/kg i.v. for 5 consecutive days, Day 8, mean ± SE, n = 5) of the same molecule?
**A.** 865.4 ± 107.2 mm^3

**Q.** What about the “mean tumor volume, Day 10” value ([2]; ALA alone 100 mg/kg i.v. for 5 consecutive days, Day 10, mean ± SE, n = 5) of the same molecule?
**A.** 1403 ± 224.3 mm^3

**Q.** What about the “mean tumor volume, Day 12” value ([2]; ALA alone 100 mg/kg i.v. for 5 consecutive days, Day 12, mean ± SE, n = 5) of the same molecule?
**A.** 1842.6 ± 218.8 mm^3

**Q.** And the “mean tumor volume, Day 14” value ([2]; ALA alone 100 mg/kg i.v. for 5 consecutive days, Day 14, mean ± SE, n = 5)?
**A.** 2276.3 ± 192.8 mm^3

**Q.** What about the “mean tumor volume, Day 16” value ([2]; ALA alone 100 mg/kg i.v. for 5 consecutive days, Day 16, mean ± SE, n = 5) of the same molecule?
**A.** 2869.4 ± 267.9 mm^3

**Q.** What about the “growth of the tumor in comparison to the control group” value ([2]; ALA multiple-dose administration alone, 16th day, p=0.0448) of the same molecule?
**A.** inhibited

**Q.** What about the “DCF fluorescence in the cytoplasm (confocal)” value [3] of the same molecule?
**A.** apparently increased
